Test results taken from ChEMBL document CHEMBL5303304, “EUbOPEN Chemogenomics Library - IncuCyte” (2023).

Legend:
Type in all cases: toxicity, cell-based
[1] = tested on: Fibroblast; experiment: Incucyte cell viability with human fibroblast; conditions: 10 µM, compound concentration 10 uM
[2] = tested on: HEK-293T; experiment: Incucyte cell viability with HEK293T; conditions: human, 10 µM, compound concentration 10 uM
[3] = tested on: U2OS; experiment: Incucyte cell viability with U2OS; conditions: human, 10 µM, compound concentration 10 uM
Note: unitless GR value; below 1 slowed growth and below 0 cell loss.

Row | SMILES | Growth Rate ([1]; 12 h, replicate number 1) | Growth Rate ([1]; 12 h, replicate number 2) | Growth Rate ([1]; 18 h, replicate number 2) | Growth Rate ([1]; 24 h, replicate number 1) | Growth Rate ([1]; 24 h, replicate number 2) | Growth Rate ([2]; 6 h, replicate number 1) | Growth Rate ([2]; 12 h, replicate number 1) | Growth Rate ([2]; 12 h, replicate number 2) | Growth Rate ([2]; 18 h, replicate number 1) | Growth Rate ([2]; 18 h, replicate number 2) | Growth Rate ([2]; 24 h, replicate number 1) | Growth Rate ([2]; 24 h, replicate number 2) | Growth Rate ([3]; 0 h, replicate number 1) | Growth Rate ([3]; 6 h, replicate number 1) | Growth Rate ([3]; 6 h, replicate number 2) | Growth Rate ([3]; 12 h, replicate number 1) | Growth Rate ([3]; 12 h, replicate number 2) | Growth Rate ([3]; 18 h, replicate number 1) | Growth Rate ([3]; 18 h, replicate number 2) | Growth Rate ([3]; 24 h, replicate number 1) | also measured
1 | Cc1cc(Cn2c(N3CC4(CNC4)C3)nc3c(N4CCN(C)CC4)cc(Cl)cc32)cc(C)c1F | -0.99 | -1 | -0.98 | -0.88 | -0.93 | -0.99 | -0.88 | -0.92 | -0.67 | -0.74 | -0.51 | -0.56 | -1 | -0.98 | -0.99 | -0.97 | -0.92 | -0.92 | -0.84 | -0.79 | Growth Rate ([1]; 0 h, replicate number 1): -1; Growth Rate ([1]; 6 h, replicate number 2): -1; Growth Rate ([1]; 18 h, replicate number 1): -0.95; Growth Rate ([2]; 6 h, replicate number 2): -1; Growth Rate ([3]; 24 h, replicate number 2): -0.77
2 | COc1ccccc1N1CCN(c2ncnc3c2cnn3-c2ccccc2)CC1 | 0.42 | 0.94 |  | 0.48 | 0.91 | 0.67 | 0.99 | 0.98 |  |  |  |  | 0.75 |  |  | 0.47 | 0.93 | 0.13 | 1 | 0.25 | Growth Rate ([1]; 0 h, replicate number 2): 0; Growth Rate ([1]; 6 h, replicate number 1): -0.03; Growth Rate ([1]; 18 h, replicate number 1): 0.39; Growth Rate ([2]; 6 h, replicate number 2): 0.19; Growth Rate ([3]; 24 h, replicate number 2): 0.85
3 | CCOC(=O)c1cnn(-c2ccc(NC(=O)C(Cl)=C(Cl)Cl)cc2)c1C(F)(F)F | -1 | -0.86 | -0.7 |  | -0.57 | -0.63 | -0.5 | -0.37 | -0.51 | -0.25 | -0.51 | -0.13 | -0.17 | -0.33 | 0.04 | -0.42 | -0.46 | -0.49 | -0.43 | -0.43 | Growth Rate ([1]; 6 h, replicate number 2): -1; Growth Rate ([2]; 6 h, replicate number 2): -0.52; Growth Rate ([3]; 0 h, replicate number 2): 0.55; Growth Rate ([3]; 24 h, replicate number 2): -0.42
4 | CC(C)(C)OC(=O)CN1C(=O)c2c(OCC(=O)O)cccc2Oc2ccc(C(F)(F)F)cc21 |  | 0.43 | 0.87 |  |  | 0.69 | 0.61 |  | 0.76 |  | 0.75 |  | 0.59 | 0.75 |  | 0.85 |  | 0.83 |  | 0.89 | Growth Rate ([1]; 6 h, replicate number 1): 0.95; Growth Rate ([1]; 6 h, replicate number 2): -0.59; Growth Rate ([2]; 0 h, replicate number 1): 0.31; Growth Rate ([2]; 0 h, replicate number 2): -0.65
5 | CC1(C)Cc2nc(C3CCCC3)c([C@@H](F)c3ccc(C(F)(F)F)cc3)c(C3CCCCC3)c2[C@@H](O)C1 | 0.46 | 0.89 | 0.82 | 0.38 | 0.95 | 0.88 |  |  | 0.88 | 0.91 | 0.83 | 0.89 |  |  | 0.48 |  | 0.54 |  | 0.82 | 0.87 | Growth Rate ([1]; 0 h, replicate number 1): -0.22; Growth Rate ([1]; 0 h, replicate number 2): -0.59; Growth Rate ([1]; 6 h, replicate number 1): 0.71; Growth Rate ([1]; 18 h, replicate number 1): 0.51; Growth Rate ([2]; 0 h, replicate number 1): 0.94; Growth Rate ([2]; 0 h, replicate number 2): -0.11; Growth Rate ([3]; 0 h, replicate number 2): 0.96
6 | CCc1ccc(N(CC(C)C)S(=O)(=O)c2ccc(OCC3CCOCC3)c(CO)c2)cc1 [GSK2981278] |  |  | 0.7 | 0.91 | 0.85 | 0.86 | 0.83 | 0.5 | 0.81 | 0.48 | 0.82 | 0.53 | 0.11 | 0.9 | 0.96 |  |  | 0.98 |  |  | Growth Rate ([1]; 0 h, replicate number 2): 0.86; Growth Rate ([2]; 0 h, replicate number 1): -0.35; Growth Rate ([3]; 0 h, replicate number 2): 0.13
7 | COCCN1CCN(CCn2ccc(Nc3ncc4c(n3)-c3c(nn(C)c3-c3ccccc3)C[C@H]4C)n2)CC1 | 0.47 | 0.24 | 0.31 | 0.52 | 0.41 | -0.53 | -0.36 | -0.33 | -0.28 | -0.32 | -0.17 | -0.22 |  | 0.91 | 0.25 | -0.73 | -0.9 | 0.7 | -0.83 | 0.85 | Growth Rate ([1]; 0 h, replicate number 2): 0.9; Growth Rate ([1]; 6 h, replicate number 1): 0.35; Growth Rate ([1]; 6 h, replicate number 2): 0.5; Growth Rate ([1]; 18 h, replicate number 1): 0.37; Growth Rate ([2]; 6 h, replicate number 2): -0.51; Growth Rate ([3]; 24 h, replicate number 2): 0.5
